# In PubChem BioAssay (NCI):
#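 Growth conditions: 96-well plates. Treatment: test compound, 48 hours, 5 concentrations. Analysis: linear interpolation between bracketing concentrations; unreached endpoints set to highest concentration. TGI: total growth inhibition.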
# Key:
# Assay in all cases: NCI anticancer screen, dose series, 48 h
# CAKI-1 renal = system: CAKI-1 renal
# MOLT-4 leukemia = system: MOLT-4 leukemia
# HCT-116 colon = system: HCT-116 colon
# M14 melanoma = system: M14 melanoma
# MDA-MB-435 = system: MDA-MB-435
# SR leukemia = system: SR leukemia
# SW-620 colon = system: SW-620 colon
# A549 NSCLC = system: A549 NSCLC
# MDA-N = system: MDA-N
# UO-31 renal = system: UO-31 renal
# UACC-257 melanoma = system: UACC-257 melanoma
# HOP-92 NSCLC = system: HOP-92 NSCLC
# ACHN renal = system: ACHN renal
# DU-145 prostate = system: DU-145 prostate
# SK-MEL-5 melanoma = system: SK-MEL-5 melanoma
# SK-OV-3 ovarian = system: SK-OV-3 ovarian
# OVCAR-4 ovarian = system: OVCAR-4 ovarian
# UACC-62 melanoma = system: UACC-62 melanoma
# NCI-H226 lung = system: NCI-H226 lung
# HS 578T breast = system: HS 578T breast
# HT29 colon = system: HT29 colon
# SK-MEL-2 melanoma = system: SK-MEL-2 melanoma
# SK-MEL-28 melanoma = system: SK-MEL-28 melanoma
# MDA-MB-231 breast = system: MDA-MB-231 breast
# NCI-H460 lung = system: NCI-H460 lung
# MALME-3M melanoma = system: MALME-3M melanoma
# T-47D breast = system: T-47D breast
# RXF 393 renal = system: RXF 393 renal
# KM12 colon = system: KM12 colon
# NCI-H522 lung = system: NCI-H522 lung
# LOX IMVI melanoma = system: LOX IMVI melanoma
# TK-10 renal = system: TK-10 renal
# IGROV1 ovarian = system: IGROV1 ovarian
# SF-268 CNS = system: SF-268 CNS
# NCI-H23 lung = system: NCI-H23 lung
# SN12C renal = system: SN12C renal
# SF-295 CNS = system: SF-295 CNS
# HCT-15 colon = system: HCT-15 colon
# NCI/ADR-RES ovarian = system: NCI/ADR-RES ovarian
# COLO 205 colon = system: COLO 205 colon
# 786-0 renal = system: 786-0 renal
# SF-539 CNS = system: SF-539 CNS
# HCC-2998 colon = system: HCC-2998 colon
# HOP-62 NSCLC = system: HOP-62 NSCLC
# SNB-19 CNS = system: SNB-19 CNS
# OVCAR-5 ovarian = system: OVCAR-5 ovarian
# BT-549 breast = system: BT-549 breast
# MCF7 breast = system: MCF7 breast
# OVCAR-3 ovarian = system: OVCAR-3 ovarian
# U251 CNS = system: U251 CNS
# OVCAR-8 ovarian = system: OVCAR-8 ovarian
# PC-3 prostate = system: PC-3 prostate
# SNB-75 CNS = system: SNB-75 CNS
# EKVX NSCLC = system: EKVX NSCLC
# CCRF-CEM leukemia = system: CCRF-CEM leukemia
# K-562 leukemia = system: K-562 leukemia
# RPMI-8226 leukemia = system: RPMI-8226 leukemia
structure (smiles),measurement,setting,value
O=C1C=CC(=O)c2c(O)c(N3CCSCC3)c(Cl)c(O)c21,TGI,CAKI-1 renal,1.73 µM
same,TGI,MOLT-4 leukemia,3.82 µM
same,TGI,HCT-116 colon,1.03 µM
same,TGI,M14 melanoma,1.05 µM
same,TGI,MDA-MB-435,1.94 µM
same,TGI,SR leukemia,1.24 µM
same,TGI,SW-620 colon,0.548 µM
same,TGI,A549 NSCLC,1.79 µM
same,TGI,MDA-N,1.48 µM
same,TGI,UO-31 renal,1.81 µM
same,TGI,UACC-257 melanoma,2.88 µM
same,TGI,HOP-92 NSCLC,2.21 µM
same,TGI,ACHN renal,1.48 µM
same,TGI,DU-145 prostate,2.02 µM
same,TGI,SK-MEL-5 melanoma,1.69 µM
same,TGI,SK-OV-3 ovarian,4 µM
same,TGI,OVCAR-4 ovarian,1.77 µM
same,TGI,UACC-62 melanoma,1.75 µM
same,TGI,NCI-H226 lung,1.82 µM
same,TGI,HS 578T breast,2.18 µM
same,TGI,HT29 colon,1.47 µM
same,TGI,SK-MEL-2 melanoma,0.603 µM
same,TGI,SK-MEL-28 melanoma,2.16 µM
same,TGI,MDA-MB-231 breast,1.03 µM
same,TGI,NCI-H460 lung,1.71 µM
same,TGI,MALME-3M melanoma,1.34 µM
same,TGI,T-47D breast,2.29 µM
same,TGI,RXF 393 renal,0.781 µM
same,TGI,KM12 colon,1.38 µM
same,TGI,NCI-H522 lung,1.29 µM
same,TGI,LOX IMVI melanoma,0.362 µM
same,TGI,TK-10 renal,1.56 µM
same,TGI,IGROV1 ovarian,2 µM
same,TGI,SF-268 CNS,1.74 µM
same,TGI,NCI-H23 lung,0.689 µM
O=C1NC(=O)/C(=C\c2ccncc2)N1,TGI,CAKI-1 renal,> 100 µM
same,TGI,MOLT-4 leukemia,> 100 µM
same,TGI,HCT-116 colon,> 100 µM
same,TGI,M14 melanoma,> 100 µM
same,TGI,MDA-MB-435,> 100 µM
same,TGI,SW-620 colon,> 100 µM
same,TGI,SN12C renal,> 100 µM
same,TGI,SF-295 CNS,> 100 µM
same,TGI,A549 NSCLC,> 100 µM
same,TGI,MDA-N,> 100 µM
same,TGI,UO-31 renal,> 100 µM
same,TGI,HCT-15 colon,> 100 µM
same,TGI,UACC-257 melanoma,> 100 µM
same,TGI,HOP-92 NSCLC,> 100 µM
same,TGI,NCI/ADR-RES ovarian,> 100 µM
same,TGI,ACHN renal,> 100 µM
same,TGI,DU-145 prostate,> 100 µM
same,TGI,SK-MEL-5 melanoma,> 100 µM
same,TGI,SK-OV-3 ovarian,> 100 µM
same,TGI,OVCAR-4 ovarian,> 100 µM
same,TGI,NCI-H226 lung,> 100 µM
same,TGI,COLO 205 colon,> 100 µM
same,TGI,786-0 renal,> 100 µM
same,TGI,SF-539 CNS,> 100 µM
same,TGI,HT29 colon,> 100 µM
same,TGI,HCC-2998 colon,> 100 µM
same,TGI,SK-MEL-2 melanoma,> 100 µM
same,TGI,HOP-62 NSCLC,> 100 µM
same,TGI,SNB-19 CNS,> 100 µM
same,TGI,SK-MEL-28 melanoma,> 100 µM
same,TGI,MDA-MB-231 breast,> 100 µM
same,TGI,NCI-H460 lung,> 100 µM
same,TGI,OVCAR-5 ovarian,> 100 µM
same,TGI,T-47D breast,> 100 µM
same,TGI,BT-549 breast,> 100 µM
same,TGI,MCF7 breast,> 100 µM
same,TGI,OVCAR-3 ovarian,> 100 µM
same,TGI,U251 CNS,> 100 µM
same,TGI,KM12 colon,> 100 µM
same,TGI,LOX IMVI melanoma,> 100 µM
same,TGI,OVCAR-8 ovarian,> 100 µM
same,TGI,TK-10 renal,> 100 µM
same,TGI,IGROV1 ovarian,> 100 µM
same,TGI,PC-3 prostate,> 100 µM
same,TGI,NCI-H23 lung,> 100 µM
same,TGI,SNB-75 CNS,> 100 µM
same,TGI,EKVX NSCLC,> 100 µM
O=C1c2ccccc2-c2cc3ccccc3c(=O)n21,TGI,HCT-116 colon,> 100 µM
same,TGI,M14 melanoma,> 100 µM
same,TGI,MDA-MB-435,> 100 µM
same,TGI,SR leukemia,> 100 µM
same,TGI,SW-620 colon,> 100 µM
same,TGI,SN12C renal,> 100 µM
same,TGI,SF-295 CNS,> 100 µM
same,TGI,A549 NSCLC,> 100 µM
same,TGI,MDA-N,> 100 µM
same,TGI,UO-31 renal,> 100 µM
same,TGI,HCT-15 colon,> 100 µM
same,TGI,UACC-257 melanoma,> 100 µM
same,TGI,NCI/ADR-RES ovarian,> 100 µM
same,TGI,ACHN renal,> 100 µM
same,TGI,DU-145 prostate,> 100 µM
same,TGI,SK-MEL-5 melanoma,> 100 µM
same,TGI,CCRF-CEM leukemia,> 100 µM
same,TGI,K-562 leukemia,> 100 µM
same,TGI,UACC-62 melanoma,> 100 µM
same,TGI,COLO 205 colon,> 100 µM
same,TGI,786-0 renal,> 100 µM
same,TGI,SF-539 CNS,> 100 µM
same,TGI,HS 578T breast,> 100 µM
same,TGI,HT29 colon,> 100 µM
same,TGI,HCC-2998 colon,> 100 µM
same,TGI,SK-MEL-2 melanoma,> 100 µM
same,TGI,SNB-19 CNS,> 100 µM
same,TGI,SK-MEL-28 melanoma,> 100 µM
same,TGI,NCI-H460 lung,> 100 µM
same,TGI,OVCAR-5 ovarian,> 100 µM
same,TGI,T-47D breast,> 100 µM
same,TGI,MCF7 breast,> 100 µM
same,TGI,OVCAR-3 ovarian,> 100 µM
same,TGI,KM12 colon,> 100 µM
same,TGI,NCI-H522 lung,> 100 µM
same,TGI,LOX IMVI melanoma,> 100 µM
same,TGI,OVCAR-8 ovarian,> 100 µM
same,TGI,RPMI-8226 leukemia,> 100 µM
same,TGI,TK-10 renal,> 100 µM
same,TGI,IGROV1 ovarian,> 100 µM
same,TGI,PC-3 prostate,> 100 µM
same,TGI,SF-268 CNS,> 100 µM
same,TGI,NCI-H23 lung,> 100 µM
same,TGI,SNB-75 CNS,> 100 µM
same,TGI,EKVX NSCLC,> 100 µM
